The results in this text go back to US20200078468A1, “NEUROTENSIN RECEPTOR BINDING CONJUGATES AND FORMULATIONS THEREOF” (priority 2016, published 2020).

In test [1] the test system is SW48 (human colon cancer cells). Put plainly: inhibition of SW48 cell proliferation (CellTiter Glo). Type of test: cell-based. Particulars: NTSR1 targeted compound; 72 hrs; read-out: SW-48 proliferation IC50. The method, boiled down:
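Cells plated at 5,000/well and grown 24 hrs were exposed to conjugates for 72 hrs at 37° C, 5% CO2, in a ten-point three-fold series starting at 10 μM; vehicle was 0.01% DMSO. Proliferation was read by CellTiter Glo. % inhibition was taken relative to vehicle, with IC50 from four-parameter nonlinear regression.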

Another test concerns the target T1, human NTSR1 (Homo sapiens, UniProt P30989).
T1 construct: host or cells: HEK-293 cells (membrane preparations)
Put plainly: radioligand-receptor binding assay, [125I] labeled neurotensin (Eurofins Panlabs). To be noted: [125I] neurotensin 0.02 nM, membranes from NTSR1 expressing HEK-293 cells, 45 minute incubation, Cheng and Prusoff; read-out: NTSR1 binding Ki. The method, boiled down:
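Membranes from HEK-293 cells expressing human NTSR1 incubated 45 min with 0.02 nM [125I]neurotensin and conjugate in 6-point 3-fold dilutions from 100 or 10 nM; bound radioactivity counted after filtration. IC50 by nonlinear regression, converted to Ki via Cheng–Prusoff using historical ligand Kd.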

T1 sequence (P30989 whole entry): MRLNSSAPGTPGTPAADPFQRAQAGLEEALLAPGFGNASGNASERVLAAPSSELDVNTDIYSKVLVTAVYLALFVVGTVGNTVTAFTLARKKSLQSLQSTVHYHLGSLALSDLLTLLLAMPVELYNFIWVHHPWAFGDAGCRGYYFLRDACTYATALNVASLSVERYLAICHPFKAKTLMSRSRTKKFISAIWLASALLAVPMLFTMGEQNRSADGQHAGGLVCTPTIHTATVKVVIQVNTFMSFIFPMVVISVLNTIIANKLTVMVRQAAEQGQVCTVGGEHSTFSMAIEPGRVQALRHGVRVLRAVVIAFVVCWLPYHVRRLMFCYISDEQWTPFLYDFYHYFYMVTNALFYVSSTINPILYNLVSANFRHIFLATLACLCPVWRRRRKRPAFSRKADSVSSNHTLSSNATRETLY

As a reminder, the Ki is a dissociation constant, usually derived from enzyme kinetics or from competition with a known ligand. Consider `COc1cc2cc(c1Cl)N(C)C(=O)C[C@H](OC(=O)[C@H](C)N(C)C(=O)CCSC1CC(=O)N(CCCNC(=O)CNC(=O)[C@H](CC(C)C)NC(=O)[C@H](Cc3ccccc3)NC(=O)CNC(=O)CCCCCN3C(=O)CC(SC(C)(C)[C@H](NC(C)=O)C(=O)N4CCC[C@H]4C(=O)N(C)[C@@H](CCCNC(=N)N)C(=O)N[C@@H](CCCNC(=N)N)C(=O)N4CCC[C@H]4C(=O)N[C@@H](Cc4ccc(O)cc4)C(=O)N[C@H](C(=O)N[C@@H](CC(C)C)C(=O)O)C(C)(C)C)C3=O)C1=O)[C@]1(C)O[C@H]1[C@H](C)[C@@H]1C[C@@](O)(NC(=O)O1)[C@H](OC)/C=C/C=C(\C)C2` (some centres unmarked) [Compound 20], for which, in test [1], the IC50 is 6.8 nM. Further, the Ki at human NTSR1 was 0.93 nM.
Take `COc1cc2cc(c1Cl)N(C)C(=O)C[C@H](OC(=O)[C@H](C)N(C)C(=O)CCSC1CC(=O)N(CCCNC(=O)CNC(=O)[C@H](CC(C)C)NC(=O)[C@H](Cc3ccccc3)NC(=O)CNC(=O)CCCCCN3C(=O)CC(SC(C)(C)[C@H](NC(C)=O)C(=O)N4CCC[C@H]4C(=O)N[C@@H](CCCCN)C(=O)N[C@@H](CCCNC(=N)N)C(=O)N4CCC[C@H]4C(=O)N[C@@H](Cc4ccc(O)cc4)C(=O)N[C@H](C(=O)N[C@@H](CC(C)C)C(=O)O)C(C)(C)C)C3=O)C1=O)[C@]1(C)O[C@H]1[C@H](C)[C@@H]1C[C@@](O)(NC(=O)O1)[C@H](OC)/C=C/C=C(\C)C2` (some centres unmarked) [Compound 21]: the IC50 in test [1] was 0.49 nM. The Ki on human NTSR1 came to 4.65 nM.
Taken in the same sequence, the figures for `COc1cc2cc(c1Cl)N(C)C(=O)C[C@H](OC(=O)[C@H](C)N(C)C(=O)CCSC1CC(=O)N(CCCNC(=O)CNC(=O)[C@H](CC(C)C)NC(=O)[C@H](Cc3ccccc3)NC(=O)CNC(=O)CCCCCN3C(=O)CC(SC(C)(C)[C@H](NC(C)=O)C(=O)N4CCC[C@H]4C(=O)N[C@@H](CCCCN)C(=O)N(C)[C@@H](CCCNC(=N)N)C(=O)N4CCC[C@H]4C(=O)N[C@@H](Cc4ccc(O)cc4)C(=O)N[C@H](C(=O)N[C@@H](CC(C)C)C(=O)O)C(C)(C)C)C3=O)C1=O)[C@]1(C)O[C@H]1[C@H](C)[C@@H]1C[C@@](O)(NC(=O)O1)[C@H](OC)/C=C/C=C(\C)C2` (some centres unmarked) [Compound 22] were 0.53 nM and 12.6 nM.
Regarding `COc1cc2cc(c1Cl)N(C)C(=O)C[C@H](OC(=O)[C@H](C)N(C)C(=O)CCSC1CC(=O)N(CCCNC(=O)CNC(=O)[C@H](CC(C)C)NC(=O)[C@H](Cc3ccccc3)NC(=O)CNC(=O)CCC(=O)NCCCC[C@H](NC(=O)c3ccc(C(C)=O)cc3)C(=O)N3CCC[C@H]3C(=O)N(C)[C@@H](CCCNC(=N)N)C(=O)N[C@@H](CCCNC(=N)N)C(=O)N3CCC[C@H]3C(=O)N[C@@H](Cc3ccc(O)cc3)C(=O)N[C@H](C(=O)N[C@@H](CC(C)C)C(=O)O)C(C)(C)C)C1=O)[C@]1(C)O[C@H]1[C@H](C)[C@@H]1C[C@@](O)(NC(=O)O1)[C@H](OC)/C=C/C=C(\C)C2` (some centres unmarked) [Compound 28], the IC50 in test [1] turned out to be 5.9 nM. Moreover, the inhibition constant (Ki) at human NTSR1 amounted to 0.67 nM.
As for `COc1cc2cc(c1Cl)N(C)C(=O)C[C@H](OC(=O)[C@H](C)N(C)C(=O)CCSC1CC(=O)N(CCCNC(=O)CNC(=O)[C@H](CC(C)C)NC(=O)[C@H](Cc3ccccc3)NC(=O)CNC(=O)CCCCCN3C(=O)CC(SCCC(=O)NCCCC[C@H](NC(C)=O)C(=O)N4CCC[C@H]4C(=O)N[C@H](CCCNC(=N)N)C(=O)N[C@@H](CCCNC(=N)N)C(=O)N4CCC[C@H]4C(=O)N[C@@H](Cc4ccc(O)cc4)C(=O)N[C@H](C(=O)N[C@@H](CC(C)C)C(=O)O)C(C)(C)C)C3=O)C1=O)[C@]1(C)O[C@H]1[C@H](C)[C@@H]1C[C@@](O)(NC(=O)O1)[C@H](OC)/C=C/C=C(\C)C2` (some centres unmarked) [Compound 29], in test [1], the IC50 turned out to be 22 nM. Further, the Ki at human NTSR1 turned out to be 1.77 nM.
Turning to `COc1cc2cc(c1Cl)N(C)C(=O)C[C@H](OC(=O)[C@H](C)N(C)C(=O)CCSC1CC(=O)N(CCCNC(=O)CNC(=O)[C@H](CC(C)C)NC(=O)[C@H](Cc3ccccc3)NC(=O)CNC(=O)CCCCCN3C(=O)CC(SCCC(=O)NCCCC[C@H](NC(C)=O)C(=O)N4CCC[C@H]4C(=O)N[C@H](CCCNC(=N)N)C(=O)N[C@@H](CCN)C(=O)N4CCC[C@H]4C(=O)N[C@@H](Cc4ccc(O)cc4)C(=O)N[C@H](C(=O)N[C@@H](CC(C)C)C(=O)O)C(C)(C)C)C3=O)C1=O)[C@]1(C)O[C@H]1[C@H](C)[C@@H]1C[C@@](O)(NC(=O)O1)[C@H](OC)/C=C/C=C(\C)C2` (some centres unmarked) [Compound 30], in test [1], the IC50 amounted to 42.7 nM. Further, the inhibitory constant (Ki) at human NTSR1 was 4.23 nM.
As to `COc1cc2cc(c1Cl)N(C)C(=O)C[C@H](OC(=O)[C@H](C)N(C)C(=O)CCSC1CC(=O)N(CCCNC(=O)CNC(=O)[C@H](CC(C)C)NC(=O)[C@H](Cc3ccccc3)NC(=O)CNC(=O)CCCCCN3C(=O)CC(SCCC(=O)NCCCC[C@H](NC(C)=O)C(=O)N4CCC[C@H]4C(=O)N[C@@H](CCCNC(=N)N)C(=O)N[C@@H](CCN)C(=O)N4CCC[C@H]4C(=O)N[C@@H](Cc4ccc(O)cc4)C(=O)N[C@H](C(=O)N[C@@H](CC(C)C)C(=O)O)C(C)(C)C)C3=O)C1=O)[C@]1(C)O[C@H]1[C@H](C)[C@@H]1C[C@@](O)(NC(=O)O1)[C@H](OC)/C=C/C=C(\C)C2` (some centres unmarked) [Compound 31], the IC50 in test [1] was determined as 75.6 nM. Moreover, at human NTSR1, the Ki is 2.39 nM.
Turning to `COc1cc2cc(c1Cl)N(C)C(=O)C[C@H](OC(=O)[C@H](C)N(C)C(=O)CCSC1CC(=O)N(CCCNC(=O)CNC(=O)[C@H](CC(C)C)NC(=O)[C@H](Cc3ccccc3)NC(=O)CNC(=O)CCCCCN3C(=O)CC(SCCC(=O)NCCCC[C@H](NC(C)=O)C(=O)N4CCC[C@H]4C(=O)N[C@@H](CCCCN)C(=O)N[C@@H](CCN)C(=O)N4CCC[C@H]4C(=O)N[C@@H](Cc4ccc(O)cc4)C(=O)N[C@H](C(=O)N[C@@H](CC(C)C)C(=O)O)C(C)(C)C)C3=O)C1=O)[C@]1(C)O[C@H]1[C@H](C)[C@@H]1C[C@@](O)(NC(=O)O1)[C@H](OC)/C=C/C=C(\C)C2` (some centres unmarked) [Compound 32], the IC50 in test [1] came out at 70.8 nM. Moreover, the Ki on human NTSR1 was 5.03 nM.
`COc1cc2cc(c1Cl)N(C)C(=O)C[C@H](OC(=O)[C@H](C)N(C)C(=O)CCSC1CC(=O)N(CCCNC(=O)CNC(=O)[C@H](CC(C)C)NC(=O)[C@H](Cc3ccccc3)NC(=O)CNC(=O)CCCCCN3C(=O)CC(SCCC(=O)NCCCC[C@H](NC(C)=O)C(=O)N4CCC[C@H]4C(=O)N[C@@H](CCCCN)C(=O)N[C@@H](CCCNC(=N)N)C(=O)N4CCC[C@H]4C(=O)N[C@@H](Cc4ccc(O)cc4)C(=O)N[C@H](C(=O)N[C@@H](CC(C)C)C(=O)O)C(C)(C)C)C3=O)C1=O)[C@]1(C)O[C@H]1[C@H](C)[C@@H]1C[C@@](O)(NC(=O)O1)[C@H](OC)/C=C/C=C(\C)C2` (some centres unmarked) [Compound 33]: the IC50 in test [1] came out at 105 nM. Also, the inhibitory constant (Ki) on human NTSR1 was determined as 2.32 nM.
As for `COc1cc2cc(c1Cl)N(C)C(=O)C[C@H](OC(=O)[C@H](C)N(C)C(=O)CCSC1CC(=O)N(CCCNC(=O)CNC(=O)[C@H](CC(C)C)NC(=O)[C@H](Cc3ccccc3)NC(=O)CNC(=O)CCCCCN3C(=O)CC(SCCC(=O)NCCCC[C@H](NC(C)=O)C(=O)N4CCC[C@H]4C(=O)N[C@H](CCCN)C(=O)N[C@@H](CCN)C(=O)N4CCC[C@H]4C(=O)N[C@@H](Cc4ccc(O)cc4)C(=O)N[C@H](C(=O)N[C@@H](CC(C)C)C(=O)O)C(C)(C)C)C3=O)C1=O)[C@]1(C)O[C@H]1[C@H](C)[C@@H]1C[C@@](O)(NC(=O)O1)[C@H](OC)/C=C/C=C(\C)C2` (some centres unmarked) [Compound 34], the IC50 in test [1] amounted to 70.2 nM. The inhibition constant (Ki) on human NTSR1 stood at 6.07 nM.
The matching figures for `COc1cc2cc(c1Cl)N(C)C(=O)C[C@H](OC(=O)[C@H](C)N(C)C(=O)CCSC1CC(=O)N(CCCNC(=O)CNC(=O)[C@H](CC(C)C)NC(=O)[C@H](Cc3ccccc3)NC(=O)CNC(=O)CCCCCN3C(=O)CC(SCCC(=O)NCCCC[C@H](NC(C)=O)C(=O)N4CCC[C@H]4C(=O)N[C@H](CCCN)C(=O)N[C@@H](CCCNC(=N)N)C(=O)N4CCC[C@H]4C(=O)N[C@@H](Cc4ccc(O)cc4)C(=O)N[C@H](C(=O)N[C@@H](CC(C)C)C(=O)O)C(C)(C)C)C3=O)C1=O)[C@]1(C)O[C@H]1[C@H](C)[C@@H]1C[C@@](O)(NC(=O)O1)[C@H](OC)/C=C/C=C(\C)C2` (some centres unmarked) [Compound 35]: 47.3 nM and 3.75 nM.
`COc1cc2cc(c1Cl)N(C)C(=O)C[C@H](OC(=O)[C@H](C)N(C)C(=O)CCSC1CC(=O)N(CCCNC(=O)CNC(=O)[C@H](CC(C)C)NC(=O)[C@H](Cc3ccccc3)NC(=O)CNC(=O)CCCCCN3C(=O)CC(SCCC(=O)NCCCC[C@H](NC(C)=O)C(=O)N4CCC[C@H]4C(=O)N[C@@H](CCCN)C(=O)N[C@@H](CCN)C(=O)N4CCC[C@H]4C(=O)N[C@@H](Cc4ccc(O)cc4)C(=O)N[C@H](C(=O)N[C@@H](CC(C)C)C(=O)O)C(C)(C)C)C3=O)C1=O)[C@]1(C)O[C@H]1[C@H](C)[C@@H]1C[C@@](O)(NC(=O)O1)[C@H](OC)/C=C/C=C(\C)C2` (some centres unmarked) [Compound 36]: in test [1], the IC50 stood at 50 nM. Moreover, the Ki at human NTSR1 came to 4.8 nM.
Consider `COc1cc2cc(c1Cl)N(C)C(=O)C[C@H](OC(=O)[C@H](C)N(C)C(=O)CCSC1CC(=O)N(CCCNC(=O)CNC(=O)[C@H](CC(C)C)NC(=O)[C@H](Cc3ccccc3)NC(=O)CNC(=O)CCCCCN3C(=O)CC(SCCC(=O)NCCCC[C@H](NC(C)=O)C(=O)N4CCC[C@H]4C(=O)N[C@@H](CCCN)C(=O)N[C@@H](CCCNC(=N)N)C(=O)N4CCC[C@H]4C(=O)N[C@@H](Cc4ccc(O)cc4)C(=O)N[C@H](C(=O)N[C@@H](CC(C)C)C(=O)O)C(C)(C)C)C3=O)C1=O)[C@]1(C)O[C@H]1[C@H](C)[C@@H]1C[C@@](O)(NC(=O)O1)[C@H](OC)/C=C/C=C(\C)C2` (some centres unmarked) [Compound 37], for which, in test [1], the IC50 was found to be 51.6 nM. In addition, the inhibitory constant (Ki) on human NTSR1 stood at 2.35 nM.
